We go through 1 compound from article PMC8346516 (Nature Communications, 2021).

Molecules are shown by their SMILES.

This assay concerns the target T1, Lsm12 (Homo sapiens, UniProt Q3MHD2).
T1 construct: hLsm12-HisE.coli: 6×His-tagged human Lsm12 (195 residues in full length) purified from E. coli
Put plainly: competition […]-NAADP radioligand binding with purified protein; also competition pull-down with immobilized NAADP (Kd […]).

T1 sequence (Q3MHD2 whole entry): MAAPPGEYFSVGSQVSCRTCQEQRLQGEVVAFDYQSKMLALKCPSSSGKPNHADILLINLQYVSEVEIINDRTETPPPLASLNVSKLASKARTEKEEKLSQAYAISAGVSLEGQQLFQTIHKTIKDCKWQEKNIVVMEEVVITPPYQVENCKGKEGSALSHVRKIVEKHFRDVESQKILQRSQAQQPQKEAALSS

The term Kd denotes the free concentration of one partner at which half of the binding sites on the other are occupied at equilibrium, for simple one-to-one binding. For `Nc1ncnc2c1ncn2[C@@H]1O[C@H](COP(=O)(O)OP(=O)(O)OC[C@H]2O[C@@H]([n+]3cccc(C(=O)[O-])c3)[C@H](O)[C@@H]2O)[C@@H](O)[C@H]1OP(=O)(O)O` [NAADP], the Kd is roughly 20 nM.
